# Source: patent US11180474B2 (BRISTOL-MYERS SQUIBB COMPANY, priority 2016, dated 2021)
# Target: T1, human TLR9 (Homo sapiens, UniProt Q9NR96)
# T1 construct: host or cells: HEK-Blue cells
# T1 sequence (Q9NR96 26-1032): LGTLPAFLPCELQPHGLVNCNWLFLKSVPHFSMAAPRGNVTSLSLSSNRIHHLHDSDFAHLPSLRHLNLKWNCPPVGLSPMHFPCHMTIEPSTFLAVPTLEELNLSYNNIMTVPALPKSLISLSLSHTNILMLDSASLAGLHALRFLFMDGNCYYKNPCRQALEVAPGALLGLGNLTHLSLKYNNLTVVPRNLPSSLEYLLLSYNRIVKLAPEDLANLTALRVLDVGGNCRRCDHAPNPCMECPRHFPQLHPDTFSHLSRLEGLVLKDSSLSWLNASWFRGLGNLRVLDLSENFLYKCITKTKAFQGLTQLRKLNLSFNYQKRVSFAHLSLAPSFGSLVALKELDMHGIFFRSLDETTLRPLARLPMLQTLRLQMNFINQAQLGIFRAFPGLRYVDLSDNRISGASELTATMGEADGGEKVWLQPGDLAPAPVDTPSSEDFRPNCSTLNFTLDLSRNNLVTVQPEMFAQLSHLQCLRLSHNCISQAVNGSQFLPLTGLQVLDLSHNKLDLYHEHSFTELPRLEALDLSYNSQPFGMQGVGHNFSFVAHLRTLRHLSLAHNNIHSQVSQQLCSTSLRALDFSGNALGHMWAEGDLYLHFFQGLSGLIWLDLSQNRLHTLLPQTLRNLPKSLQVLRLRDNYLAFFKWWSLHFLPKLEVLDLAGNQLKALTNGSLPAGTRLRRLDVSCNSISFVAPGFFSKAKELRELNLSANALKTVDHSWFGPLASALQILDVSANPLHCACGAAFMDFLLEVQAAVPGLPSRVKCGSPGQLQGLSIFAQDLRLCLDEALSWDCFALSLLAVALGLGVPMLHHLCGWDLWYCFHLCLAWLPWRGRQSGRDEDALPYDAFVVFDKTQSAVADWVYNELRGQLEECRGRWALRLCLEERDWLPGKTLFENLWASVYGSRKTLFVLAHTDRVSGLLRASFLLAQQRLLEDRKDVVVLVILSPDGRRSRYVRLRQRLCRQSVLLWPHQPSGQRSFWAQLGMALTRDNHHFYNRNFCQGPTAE
# Test: TLR9 inhibition reporter assay (HEK-Blue cells, SEAP reporter, ODN2006 stimulation)
# Assay type: cell-based
# Conditions: HEK-Blue cells overexpressing human TLR9, ODN2006 5 nM
# Outline: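 Screening used HEK-Blue cells overexpressing one human TLR (7, 8 or 9) and an IFN-β minimal promoter–NF-κB/AP-1 SEAP construct. Stimulation lasted 22 h at 37 °C with receptor-specific agonist: gardiquimod, R848 or ODN2006 at 7.5 μM, 15.9 μM and 5 nM.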
row,SMILES,IC50 [µM]
1,"CCN(CC)C(=O)C1CCCN(CC(=O)N2CCC(c3ccc4[nH]c(-c5ccc(OC)c(OC)c5)c(C(C)C)c4c3)CC2)C1 (centres unmarked) [Example 224, 1-(2-(4-(2-(3,4-dimethoxyphenyl)-3-isopropyl-1H-indol-5-yl)piperidin-1-yl)-2-oxoethyl)-N,N-diethylpiperidine-3-carboxamide]",0.403
2,"COc1ccc(-c2[nH]c3ccc(C4CCNCC4O)cc3c2C(C)C)cc1OC (single isomer, unassigned) [Example 318, 4-(2-(3,4-dimethoxyphenyl)-3-isopropyl-1H-indol-5-yl)piperidin-3-ol 2,2,2-trifluoroacetate]",11.2
3,"COc1ccc(-c2[nH]c3ccc(C4CCN(C(=O)CN5CCC[C@H](C(=O)N6CCN(CCN7CCCC7)CC6)C5)CC4)cc3c2C(C)C)cc1OC [Example 293, (S)-1-(4-(2-(3,4-dimethoxyphenyl)-3-isopropyl-1H-indol-5-yl)piperidin-1-yl)-2-(3-(4-(2-(pyrrolidin-1-yl)ethyl)piperazine-1-carbonyl)piperidin-1-yl)ethan-1-one]",0.777
4,"COc1ccc(-c2[nH]c3ccc(C4CCN(C(=O)CO)CC4)cc3c2C(C)C)cc1OC [Example 313, 1-(4-(2-(3,4-dimethoxyphenyl)-3-isopropyl-1H-indol-5-yl)piperidin-1-yl)-2-hydroxyethanone]",48.3
5,"CCN(CC)C(=O)C1CCCN(CC(=O)N2CCC(c3ccc4[nH]c(-c5ccc(OC)c(OC)c5)c(C(C)C)c4c3)CC2)C1 (centres unmarked) [Example 247, 1-(2-(4-(2-(3,4-dimethoxyphenyl)-3-isopropyl-1H-indol-5-yl)piperidin-1-yl)-2-oxoethyl)-N,N-diethylpiperidine-3-carboxamide]",4.13
6,"COc1ccc(-c2[nH]c3ccc(C4CCN(C(=O)CN5CCC(N6CCN(C)CC6)CC5)CC4)cc3c2C(C)C)cc1OC [Example 241, 1-(4-(2-(3,4-dimethoxyphenyl)-3-isopropyl-1H-indol-5-yl)piperidin-1-yl)-2-(4-(4-methylpiperazin-1-yl)piperidin-1-yl)ethan-1-one]",0.571
7,"COc1ccc(-c2[nH]c3ccc(C4CCN(C(=O)CN5CCC(CO)CC5)CC4)cc3c2C(C)C)cc1OC [Example 243, 1-(4-(2-(3,4-dimethoxyphenyl)-3-isopropyl-1H-indol-5-yl)piperidin-1-yl)-2-(4-(hydroxymethyl)piperidin-1-yl)ethan-1-one]",1.51
8,"COc1ccc(-c2[nH]c3ccc(C4CCN(C(=O)CNC[C@@H](F)C(C)(C)O)CC4)cc3c2C(C)C)cc1OC [Example 251, (R)-1-(4-(2-(3,4-dimethoxyphenyl)-3-isopropyl-1H-indol-5-yl)piperidin-1-yl)-2-((2-fluoro-3-hydroxy-3-methylbutyl)amino) ethan-1-one]",15.3
9,"COc1ccc(-c2[nH]c3ccc(C4CCN(C(=O)CN5CCN(C(C)C)CC5)CC4)cc3c2C(C)C)cc1OC [Example 240, 1-(4-(2-(3,4-dimethoxyphenyl)-3-isopropyl-1H-indol-5-yl)piperidin-1-yl)-2-(4-isopropylpiperazin-1-yl)ethan-1-one]",1.39
10,"COc1ccc(-c2[nH]c3ccc(C4CCN(C(=O)CN5CCC[C@H](C(=O)N6CCN(C(C)=O)CC6)C5)CC4)cc3c2C(C)C)cc1OC [Example 284, (S)-2-(3-(4-acetylpiperazine-1-carbonyl)piperidin-1-yl)-1-(4-(2-(3,4-dimethoxyphenyl)-3-isopropyl-1H-indol-5-yl)piperidin-1-yl)ethan-1-one]",4.61
11,"COc1ccc(-c2[nH]c3ccc(C4CCN(Cc5nccn5C)CC4)cc3c2C(C)C)cc1OC [Example 262, 2-(3,4-dimethoxyphenyl)-3-isopropyl-5-(1-((1-methyl-1H-imidazol-2-yl)methyl)piperidin-4-yl)-1H-indole]",2.97
